Measurements from US11478519B2, “Nutritional supplement containing iron” (CURA GLOBAL HEALTH (BVI) LIMITED, priority 2012, dated 2022).

Tested on: Aspergillus oryzae
Experimental: The dose of iron was calculated as a concentration of iron elements rather than the concentration of salt; to enable comparison with the iron content in the fungal biomass. All fungal samples were thoroughly washed with deionizer water prior to testing by the ICP-OES method.
Other inorganic minerals such as selenium and zinc have been used to produce selenium or zinc enriched yeast, but the use of filamentous fungi has not been reported. […] A similar process (FIG. 2) was used for growing Aspergillus oryzae fortified with either sodium selenite or zinc sulfate. The dose of either inorganic salt was calculated as a concentration of the elements rather than the concentration of salt to enable comparison with the mineral content in the fungal biomass.

SMILES	effect on fungal yield	toxicity to Aspergillus oryzae (Fe3+ 1-200 mg/L in corn-ethanol Syrup)
O=S(=O)([O-])[O-].[Zn+2] [Zinc, zinc sulfate]	increased fungal yield	
O=S(=O)([O-])[O-].O=S(=O)([O-])[O-].O=S(=O)([O-])[O-].[Fe+3].[Fe+3] [ferric sulfate, Ferric sulfate (Fe2(SO4)3.2H2O)]		not toxic
